Experimental data as given in ChEMBL document CHEMBL1275376, “Development, validation, and use of quantitative structure-activity relationship models of 5-hydroxytryptamine (2B) receptor ligands to identify novel receptor binders and putative valvulopathic compounds among common drugs” (J Med Chem, 2010).

How the values were obtained:
[1] = biological target: T1, 5-hydroxytryptamine receptor 2B (Homo sapiens, UniProt P41595); test: Displacement of [3H]LSD from human cloned 5HT2B receptor expressed in CHO cells by liquid scintillation counting; assay type: cell-based
[2] = biological target: T1, 5-hydroxytryptamine receptor 2B; test: Agonist at human 5HT2B receptor expressed in HEK293 cells assessed as induction of calcium influx by FLIPR assay; assay type: functional, cell-based

T1 sequence (P41595 whole entry): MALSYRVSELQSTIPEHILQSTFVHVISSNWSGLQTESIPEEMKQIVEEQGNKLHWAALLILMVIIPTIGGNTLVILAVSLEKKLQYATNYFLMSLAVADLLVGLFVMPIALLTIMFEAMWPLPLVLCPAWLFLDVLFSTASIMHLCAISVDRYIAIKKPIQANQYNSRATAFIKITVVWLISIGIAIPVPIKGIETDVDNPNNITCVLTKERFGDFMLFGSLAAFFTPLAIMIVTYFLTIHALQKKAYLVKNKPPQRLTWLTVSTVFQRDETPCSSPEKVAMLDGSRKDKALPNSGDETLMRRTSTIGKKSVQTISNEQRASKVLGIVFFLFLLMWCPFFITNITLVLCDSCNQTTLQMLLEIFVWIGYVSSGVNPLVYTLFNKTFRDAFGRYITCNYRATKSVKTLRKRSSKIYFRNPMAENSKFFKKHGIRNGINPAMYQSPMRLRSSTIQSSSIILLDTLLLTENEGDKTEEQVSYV

Row | Structure (SMILES) | Ki [1] [nM] | EC50 [2] [nM]
1 | COc1ccc2[nH]cc(CN)c2c1 | 1620 | –
2 | Cn1ccc2cc3c(cc21)CCN3C(=O)Nc1cccnc1 | 4.3 | –
3 | COc1cc2c(CCNC(C)=O)c[nH]c2cc1F | 2500 | –
4 | Fc1ccc(N2CCN(CCC3OCCc4ccccc43)CC2)cc1 (centres undefined) | 69.6 | –
5 | COc1ccc2[nH]c3c(c2c1)CCNC3C (centres undefined) [ADRENOGLOMERULOTROPIN] | 491 | –
6 | CC(NCCC(c1ccccc1)c1ccccc1)c1ccccc1 (centres undefined) [FENDILINE] | 3220 | –
7 | NC(=O)N1c2ccccc2CC(O)c2ccccc21 (centres undefined) [LICARBAZEPINE] | > 10000 | –
8 | CC[C@@H](CO)NC(=O)[C@@H]1C=C2c3cccc4[nH]cc(c34)C[C@H]2N(C)C1 [METHYLERGONOVINE] | 0.8 | 21.4
